Data: patent publication US20170204102A1, “AGRICULTURAL AGENT CONTAINING 2,5-DIKETOPIPERAZINE DERIVATIVE AS ACTIVE INGREDIENT” (NAPRO BIOTEC INC., priority 2010, published 2017)
Like-named read-outs stand apart in the source and are kept apart here.

What was measured:
[1] = test system: Pectobacterium carotovorum SCC1; assay: Inhibition of soft rot lesion in tobacco leaf; assay type: in vivo
[2] = test system: cucumber leaf; assay: Promotion of growth of cucumber leaf; details: for Width of leaf: relative values with respect to the control group (89.9 mm) = 100.0; for response vs control in vivo at 1 ppm / response vs control in vivo at 10 ppm / response vs control in vivo at 100 ppm: Cucumis sativus, read-out: Width of leaf
Procedure: Plant leaves were tested with test compounds by drenching. […] 3-5 days later, the width of the leaves was measured again to compare the growth of the leaves relative to the control group.

[3] = test system: Colletotrichum orbiculare; assay type: in vivo; details: cucumber; for Number of anthractic lesions in first leaf: control 12.5; for Number of anthractic lesions in second leaf: control 96.8
[4] = test system: Colletotrichum acutatum; assay: Inhibition of anthracnose in red pepper fruit after soil drench; details: for Appearance of anthracnose: control 50
[5] = test system: Pectobacterium carotovorum SCC1; assay: Inhibition of soft rot lesion in cucumber leaf; assay type: in vivo
[6] = test system: Pectobacterium carotovorum SCC1; assay: Inhibition of naturally occurring soft rot in Chinese cabbage hydrocultured in summer; assay type: in vivo; details: 20 ppm; sprayed; examined 1 week later; control 58
Text: After spraying test compounds to hydrocultured Chinese cabbage, naturally occurring soft rot was examined 1 week later.

3-(indol-3-ylmethyl)hexahydropyrrolo[1,2-a]pyrazin-1,4-dione [Compound No. 30]
Area of lesion ([1]; 1 ppm, Table 4, control 100): 2.5% | Area of lesion ([1]; 10 ppm, Table 4, control 100): 7.5% | Area of lesion ([1]; 100 ppm, Table 4, control 100): 2.5% | Width of leaf ([2]; 1.0 ppm): 101.6 | Width of leaf ([2]; 10 ppm): 123.5 | Width of leaf ([2]; 100 ppm): 119.5 | Number of anthractic lesions in first leaf ([3]; 0.1 ppm): 2.5 | Number of anthractic lesions in second leaf ([3]; 0.1 ppm): 66.8 | Number of anthractic lesions in first leaf ([3]; 1 ppm): 3.0 | Number of anthractic lesions in second leaf ([3]; 1 ppm): 39.0 | Number of anthractic lesions in first leaf ([3]; 10 ppm): 7.0 | Number of anthractic lesions in second leaf ([3]; 10 ppm): 35.3 | Number of anthractic lesions in first leaf ([3]; 100 ppm): 7.8 | Number of anthractic lesions in second leaf ([3]; 100 ppm): 55.3 | Appearance of anthracnose ([4]; 1 ppm): 0% | Appearance of anthracnose ([4]; 10 ppm): 0% | Appearance of anthracnose ([4]; 100 ppm): 0% | Appearance of anthracnose / anthractic lesion (in words) ([4]; Table 10, FIG. 9): hardly observed | Area of lesion ([5]; 1 ppm, Table 7, control 100): 88% | Area of lesion ([5]; 10 ppm, Table 7, control 100): 75% | Area of lesion ([5]; 100 ppm, Table 7, control 100): 70%

CC(C)CC1NC(=O)C(CO)NC1=O (stereo not shown) [Compound No. 1, 3-hydroxymethyl-6-(2-methylpropyl)-2,5-diketopiperazine]
Area of lesion ([1]; 1 ppm, Table 3, control 87.5): 10% | Area of lesion ([1]; 10 ppm, Table 3, control 87.5): 32.5% | Area of lesion ([1]; 100 ppm, Table 3, control 87.5): 50% | Area of lesion ([5]; 1 ppm, Table 6, control 100): 95% | Area of lesion ([5]; 10 ppm, Table 6, control 100): 77.5% | Area of lesion ([5]; 100 ppm, Table 6, control 100): 50%

CC(C)CC1NC(=O)CNC1=O (stereo not shown) [Compound No. 2, 3-(2-methylpropyl)-2,5-diketopiperazine]
Area of lesion ([1]; 1 ppm, Table 3, control 87.5): 32.5% | Area of lesion ([1]; 10 ppm, Table 3, control 87.5): 40% | Area of lesion ([1]; 100 ppm, Table 3, control 87.5): 60% | Area of lesion ([5]; 1 ppm, Table 6, control 100): 92.5% | Area of lesion ([5]; 10 ppm, Table 6, control 100): 82.5% | Area of lesion ([5]; 100 ppm, Table 6, control 100): 50% | melting point: 241 to 244 °C

CC(C)CC1NC(=O)C(C(C)O)NC1=O (stereo not shown) [Compound No. 3, 3-(1-hydroxyethyl)-6-(2-methylpropyl)-2,5-diketopiperazine]
Area of lesion ([1]; 1 ppm, Table 3, control 87.5): 20% | Area of lesion ([1]; 10 ppm, Table 3, control 87.5): 10% | Area of lesion ([1]; 100 ppm, Table 3, control 87.5): 0% | Area of lesion ([5]; 1 ppm, Table 6, control 100): 45% | Area of lesion ([5]; 10 ppm, Table 6, control 100): 45% | Area of lesion ([5]; 100 ppm, Table 6, control 100): 42.5%

CC(C)C1NC(=O)CNC1=O (stereo not shown) [Compound No. 4, 3-isopropyl-2,5-diketopiperazine]
Area of lesion ([1]; 1 ppm, Table 3, control 87.5): 17.5% | Area of lesion ([1]; 10 ppm, Table 3, control 87.5): 52.5% | Area of lesion ([1]; 100 ppm, Table 3, control 87.5): 52.5% | Area of lesion ([5]; 1 ppm, Table 6, control 100): 37.5% | Area of lesion ([5]; 10 ppm, Table 6, control 100): 45% | Area of lesion ([5]; 100 ppm, Table 6, control 100): 87.5%

O=C1CNC(=O)C(Cc2c[nH]c3ccccc23)N1 (stereo not shown) [Compound No. 5, 3-(indol-3-ylmethyl)-2,5-diketopiperazine]
Area of lesion ([1]; 1 ppm, Table 3, control 87.5): 2.5% | Area of lesion ([1]; 10 ppm, Table 3, control 87.5): 5% | Area of lesion ([1]; 100 ppm, Table 3, control 87.5): 40% | melting point: 280 to 284 °C (dec.)

CCCC1NC(=O)C(C)NC1=O (stereo not shown) [Compound No. 9, 3-methyl-6-(2-methylethyl)-2,5-diketopiperazine]
melting point: 220 to 222 °C (dec.)

CC1NC(=O)C(Cc2ccc(O)cc2)NC1=O (stereo not shown) [Compound No. 10, 3-methyl-6-(4-hydroxybenzyl)-2,5-diketopiperazine]
melting point: 276 to 280 °C (dec.)

O=C1NC(Cc2ccc(O)cc2)C(=O)N2CCCC12 (stereo not shown) [Compound No. 23, 3-(4-hydroxybenzyl)hexahydropyrrolo[1,2-a]pyrazin-1,4-dione]
response vs control in vivo at 1 ppm [2]: 97.8% | response vs control in vivo at 10 ppm [2]: 114% | response vs control in vivo at 100 ppm [2]: 110%

O=C1NC(Cc2ccccc2)C(=O)N2CCCC12 (stereo not shown) [Compound No. 24, 3-benzylhexahydropyrrolo[1,2-a]pyrazin-1,4-dione]
response vs control in vivo at 1 ppm [2]: 98.2% | response vs control in vivo at 10 ppm [2]: 104% | response vs control in vivo at 100 ppm [2]: 102%

CC1NC(=O)C2CCCN2C1=O (stereo not shown) [Compound No. 25, 3-methylhexahydropyrrolo[1,2-a]pyrazin-1,4-dione]
Area of lesion ([1]; 1 ppm, Table 4, control 100): 15% | Area of lesion ([1]; 10 ppm, Table 4, control 100): 12.5% | Area of lesion ([1]; 100 ppm, Table 4, control 100): 0% | response vs control in vivo at 1 ppm [2]: 121% | response vs control in vivo at 10 ppm [2]: 119% | response vs control in vivo at 100 ppm [2]: 123% | Number of anthractic lesions in first leaf ([3]; 0.1 ppm): 3.8 | Number of anthractic lesions in second leaf ([3]; 0.1 ppm): 37.0 | Number of anthractic lesions in first leaf ([3]; 1 ppm): 1.3 | Number of anthractic lesions in second leaf ([3]; 1 ppm): 46.0 | Number of anthractic lesions in first leaf ([3]; 10 ppm): 1.0 | Number of anthractic lesions in second leaf ([3]; 10 ppm): 22.5 | Number of anthractic lesions in first leaf ([3]; 100 ppm): 2.0 | Number of anthractic lesions in second leaf ([3]; 100 ppm): 27.8 | Appearance of anthracnose ([4]; 1 ppm): 0% | Appearance of anthracnose ([4]; 10 ppm): 25% | Appearance of anthracnose ([4]; 100 ppm): 25% | Area of lesion ([5]; 1 ppm, Table 7, control 100): 78% | Area of lesion ([5]; 10 ppm, Table 7, control 100): 73% | Area of lesion ([5]; 100 ppm, Table 7, control 100): 85% | Appearance of soft rot [6]: 19%

CC(C)CC1NC(=O)C2CCCN2C1=O (stereo not shown) [Compound No. 27, 3-(2-methylpropyl)hexahydropyrrolo[1,2-a]pyrazin-1,4-dione]
response vs control in vivo at 1 ppm [2]: 111% | response vs control in vivo at 10 ppm [2]: 135% | response vs control in vivo at 100 ppm [2]: 129%

O=C1C2CCCN2C(=O)C2CCCN12 (stereo not shown) [Compound No. 31, octahydropyrrolo[1,2-a:1′,2′-d]pyrazin-5,10-dione]
Area of lesion ([1]; 1 ppm, Table 4, control 100): 47.5% | Area of lesion ([1]; 10 ppm, Table 4, control 100): 60% | Area of lesion ([1]; 100 ppm, Table 4, control 100): 17.5% | Width of leaf ([2]; 1.0 ppm): 104.2 | Width of leaf ([2]; 10 ppm): 103.2 | Width of leaf ([2]; 100 ppm): 102.8 | Appearance of anthracnose ([4]; 1 ppm): 25% | Appearance of anthracnose ([4]; 10 ppm): 25% | Appearance of anthracnose ([4]; 100 ppm): 0% | Area of lesion ([5]; 1 ppm, Table 7, control 100): 95% | Area of lesion ([5]; 10 ppm, Table 7, control 100): 78% | Area of lesion ([5]; 100 ppm, Table 7, control 100): 80%
